The EC50 is the concentration that produces a half-maximal response. The low end stands for higher potency in that assay, the high end for lower potency in that assay.

Here are results for seven molecules from ChEMBL document CHEMBL6153128, “Insights into the Activation Mechanism of HCA1, HCA2, and HCA3” (J Med Chem, 2025).

Test [1] deals with T1, Hydroxycarboxylic acid receptor 1 (Homo sapiens, UniProt Q9BXC0). Put plainly: Agonist activity at HCA1 (unknown origin). It is filed as functional, cell-based, HEK293.
T1 sequence (Q9BXC0 whole entry, the tested form may be a part): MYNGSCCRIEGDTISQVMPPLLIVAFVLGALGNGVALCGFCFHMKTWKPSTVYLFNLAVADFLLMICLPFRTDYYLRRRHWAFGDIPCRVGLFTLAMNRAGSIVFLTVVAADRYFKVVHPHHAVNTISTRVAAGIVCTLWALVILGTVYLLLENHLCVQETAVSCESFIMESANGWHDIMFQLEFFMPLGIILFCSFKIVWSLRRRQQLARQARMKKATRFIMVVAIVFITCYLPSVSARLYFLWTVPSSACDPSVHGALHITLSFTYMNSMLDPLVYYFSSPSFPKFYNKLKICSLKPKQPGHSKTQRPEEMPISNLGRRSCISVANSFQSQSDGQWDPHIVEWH
The test system of test [2] is HEK293. Put plainly: Agonist activity at HCA2 (1 to 129 residues)/HCA3 (130-)(unknown origin) expressed in HEK293 cells incubated for 90 mins by IP1 accumulation assay. In kind it is cell-based. To be noted: Homo sapiens.
For test [3], the system named is HEK293. Put plainly: Agonist activity at HCA3 (1 to 129 residues)/HCA2 (130-) S178I mutant (unknown origin) expressed in HEK293 cells incubated for 90 mins by IP1 accumulation assay. It is filed as cell-based. To be noted: Homo sapiens, filed as agonist.
Test [4] relates to HEK293. Nature of the test: Agonist activity at HCA2 (1 to 129 residues)/HCA3 (130-) N86Y/W91S mutant (unknown origin) expressed in HEK293 cells incubated for 90 mins by IP1 accumulation assay. It is filed as cell-based. To be noted: Homo sapiens.
For test [5], the system named is HEK293. Put plainly: Agonist activity at HCA3 (1 to 129 residues)/HCA2 (130-)(unknown origin) expressed in HEK293 cells incubated for 90 mins by IP1 accumulation assay. It is filed as cell-based. The note with it: Homo sapiens.
Test [6] concerns HEK293. Nature of the test: Agonist activity at HCA3 (1 to 129 residues)/HCA2 (130-) Y86N/S91W mutant (unknown origin) expressed in HEK293 cells incubated for 90 mins by IP1 accumulation assay. The note with it: Homo sapiens, filed as agonist. It is filed as cell-based.
The target in test [7] is T1, Hydroxycarboxylic acid receptor 1. Put plainly: Agonist activity at CRE-luc-fused HCA1 (unknown origin) expressed in HEK293 cells co-expressing XtremeGENE HP DNA assessed as inhibition of cAMP production preincubated for 30 mins followed by forskolin addition measured after 6 hrs by Bright-Glo Luciferase Assay. In kind it is functional, cell-based. To be noted: filed as agonist, time 6.5 hrs.

Test [8] concerns Hydroxycarboxylic acid receptor 1 (Homo sapiens), Q9BXC0 [C6A]. Nature of the test: Agonist activity at CRE-luc-fused HCA1 C6A mutant (unknown origin) expressed in HEK293 cells co-expressing XtremeGENE HP DNA assessed as inhibition of cAMP production preincubated for 30 mins followed by forskolin addition measured after 6 hrs by Bright-Glo Luciferase Assay. It is filed as cell-based. The note with it: time 6.5 hrs. Background: Changes in cAMP serve as a functional read-out for many G protein-coupled receptors.
Hydroxycarboxylic acid receptor 1 (Homo sapiens), Q9BXC0 [C6A], sequence (Q9BXC0 whole entry C6A, the tested form may be a part): as the sequence (Q9BXC0 whole entry, the tested form may be a part) above, with C6A counted along it

For test [9], the system named is Hydroxycarboxylic acid receptor 1 (Homo sapiens), Q9BXC0 [C7A]. Nature of the test: Agonist activity at CRE-luc-fused HCA1 C7A mutant (unknown origin) expressed in HEK293 cells co-expressing XtremeGENE HP DNA assessed as inhibition of cAMP production preincubated for 30 mins followed by forskolin addition measured after 6 hrs by Bright-Glo Luciferase Assay. In kind it is cell-based. To be noted: time 6.5 hrs.
Hydroxycarboxylic acid receptor 1 (Homo sapiens), Q9BXC0 [C7A], sequence (Q9BXC0 whole entry C7A, the tested form may be a part): as the sequence (Q9BXC0 whole entry, the tested form may be a part) above, with C7A counted along it

In test [10] the test system is Hydroxycarboxylic acid receptor 1 (Homo sapiens), Q9BXC0 [C88A]. Nature of the test: Agonist activity at CRE-luc-fused HCA1 C88A mutant (unknown origin) expressed in HEK293 cells co-expressing XtremeGENE HP DNA assessed as inhibition of cAMP production preincubated for 30 mins followed by forskolin addition measured after 6 hrs by Bright-Glo Luciferase Assay. In kind it is cell-based. The note with it: time 6.5 hrs.
Hydroxycarboxylic acid receptor 1 (Homo sapiens), Q9BXC0 [C88A], sequence (Q9BXC0 whole entry C88A, the tested form may be a part): as the sequence (Q9BXC0 whole entry, the tested form may be a part) above, with C88A counted along it

For test [11], the system named is Hydroxycarboxylic acid receptor 1 (Homo sapiens), Q9BXC0 [Y74A]. Put plainly: Agonist activity at CRE-luc-fused HCA1 Y74A mutant (unknown origin) expressed in HEK293 cells co-expressing XtremeGENE HP DNA assessed as inhibition of cAMP production preincubated for 30 mins followed by forskolin addition measured after 6 hrs by Bright-Glo Luciferase Assay. In kind it is cell-based. To be noted: time 6.5 hrs.
Hydroxycarboxylic acid receptor 1 (Homo sapiens), Q9BXC0 [Y74A], sequence (Q9BXC0 whole entry Y74A, the tested form may be a part): as the sequence (Q9BXC0 whole entry, the tested form may be a part) above, with Y74A counted along it

The subject of test [12] is Hydroxycarboxylic acid receptor 1 (Homo sapiens), Q9BXC0 [E166A]. Put plainly: Agonist activity at CRE-luc-fused HCA1 E166A mutant (unknown origin) expressed in HEK293 cells co-expressing XtremeGENE HP DNA assessed as inhibition of cAMP production preincubated for 30 mins followed by forskolin addition measured after 6 hrs by Bright-Glo Luciferase Assay. To be noted: time 6.5 hrs. It is filed as cell-based.

Test [13] relates to Hydroxycarboxylic acid receptor 1 (Homo sapiens), Q9BXC0 [E166I]. Nature of the test: Agonist activity at CRE-luc-fused HCA1 E166I mutant (unknown origin) expressed in HEK293 cells co-expressing XtremeGENE HP DNA assessed as inhibition of cAMP production preincubated for 30 mins followed by forskolin addition measured after 6 hrs by Bright-Glo Luciferase Assay. In kind it is cell-based. To be noted: time 6.5 hrs.
Hydroxycarboxylic acid receptor 1 (Homo sapiens), Q9BXC0 [E166I], sequence (Q9BXC0 whole entry E166I, the tested form may be a part): as the sequence (Q9BXC0 whole entry, the tested form may be a part) above, with E166I counted along it

The test system of test [14] is Hydroxycarboxylic acid receptor 1 (Homo sapiens), Q9BXC0 [R240A]. Put plainly: Agonist activity at CRE-luc-fused HCA1 R240A mutant (unknown origin) expressed in HEK293 cells co-expressing XtremeGENE HP DNA assessed as inhibition of cAMP production preincubated for 30 mins followed by forskolin addition measured after 6 hrs by Bright-Glo Luciferase Assay. In kind it is cell-based. To be noted: time 6.5 hrs.
Hydroxycarboxylic acid receptor 1 (Homo sapiens), Q9BXC0 [R240A], sequence (Q9BXC0 whole entry R240A, the tested form may be a part): as the sequence (Q9BXC0 whole entry, the tested form may be a part) above, with R240A counted along it

Test [15] relates to Hydroxycarboxylic acid receptor 1 (Homo sapiens), Q9BXC0 [R71A]. Nature of the test: Agonist activity at CRE-luc-fused HCA1 R71A mutant (unknown origin) expressed in HEK293 cells co-expressing XtremeGENE HP DNA assessed as inhibition of cAMP production preincubated for 30 mins followed by forskolin addition measured after 6 hrs by Bright-Glo Luciferase Assay. The note with it: time 6.5 hrs. It is filed as cell-based.
Hydroxycarboxylic acid receptor 1 (Homo sapiens), Q9BXC0 [R71A], sequence (Q9BXC0 whole entry R71A, the tested form may be a part): as the sequence (Q9BXC0 whole entry, the tested form may be a part) above, with R71A counted along it

The subject of test [16] is Hydroxycarboxylic acid receptor 1 (Homo sapiens), Q9BXC0 [Y75A]. Nature of the test: Agonist activity at CRE-luc-fused HCA1 Y75A mutant (unknown origin) expressed in HEK293 cells co-expressing XtremeGENE HP DNA assessed as inhibition of cAMP production preincubated for 30 mins followed by forskolin addition measured after 6 hrs by Bright-Glo Luciferase Assay. In kind it is cell-based. The note with it: time 6.5 hrs.

In test [17] the test system is Hydroxycarboxylic acid receptor 1 (Homo sapiens), Q9BXC0 [R99A]. Put plainly: Agonist activity at CRE-luc-fused HCA1 R99A mutant (unknown origin) expressed in HEK293 cells co-expressing XtremeGENE HP DNA assessed as inhibition of cAMP production preincubated for 30 mins followed by forskolin addition measured after 6 hrs by Bright-Glo Luciferase Assay. In kind it is cell-based. To be noted: time 6.5 hrs.
Hydroxycarboxylic acid receptor 1 (Homo sapiens), Q9BXC0 [R99A], sequence (Q9BXC0 whole entry R79A, the tested form may be a part): as the sequence (Q9BXC0 whole entry, the tested form may be a part) above, with R79A counted along it

Test [18] has as its system Hydroxycarboxylic acid receptor 1 (Homo sapiens), Q9BXC0 [H261A]. Nature of the test: Agonist activity at CRE-luc-fused HCA1 H261A mutant (unknown origin) expressed in HEK293 cells co-expressing XtremeGENE HP DNA assessed as inhibition of cAMP production preincubated for 30 mins followed by forskolin addition measured after 6 hrs by Bright-Glo Luciferase Assay. In kind it is cell-based. To be noted: time 6.5 hrs.

The subject of test [19] is Hydroxycarboxylic acid receptor 1 (Homo sapiens), Q9BXC0 [H261F]. Nature of the test: Agonist activity at CRE-luc-fused HCA1 H261F mutant (unknown origin) expressed in HEK293 cells co-expressing XtremeGENE HP DNA assessed as inhibition of cAMP production preincubated for 30 mins followed by forskolin addition measured after 6 hrs by Bright-Glo Luciferase Assay. In kind it is cell-based. The note with it: time 6.5 hrs.

The subject of test [20] is Hydroxycarboxylic acid receptor 1 (Homo sapiens), Q9BXC0 [Y268A]. Nature of the test: Agonist activity at CRE-luc-fused HCA1 Y268A mutant (unknown origin) expressed in HEK293 cells co-expressing XtremeGENE HP DNA assessed as inhibition of cAMP production preincubated for 30 mins followed by forskolin addition measured after 6 hrs by Bright-Glo Luciferase Assay. To be noted: time 6.5 hrs. In kind it is cell-based.

Each structure is given as a SMILES string. Calls of active or inactive are those of the source. No cut-off for these calls is given here.

Hydroxycarboxylic acid receptor 1 (Homo sapiens), Q9BXC0 [Y268A], sequence (Q9BXC0 whole entry Y268A, the tested form may be a part): as the sequence (Q9BXC0 whole entry, the tested form may be a part) above, with Y268A counted along it
Hydroxycarboxylic acid receptor 1 (Homo sapiens), Q9BXC0 [E166A], sequence (Q9BXC0 whole entry E166A, the tested form may be a part): as the sequence (Q9BXC0 whole entry, the tested form may be a part) above, with E166A counted along it
Hydroxycarboxylic acid receptor 1 (Homo sapiens), Q9BXC0 [H261A], sequence (Q9BXC0 whole entry H261A, the tested form may be a part): as the sequence (Q9BXC0 whole entry, the tested form may be a part) above, with H261A counted along it
Hydroxycarboxylic acid receptor 1 (Homo sapiens), Q9BXC0 [H261F], sequence (Q9BXC0 whole entry H261F, the tested form may be a part): as the sequence (Q9BXC0 whole entry, the tested form may be a part) above, with H261F counted along it
Hydroxycarboxylic acid receptor 1 (Homo sapiens), Q9BXC0 [Y75A], sequence (Q9BXC0 whole entry Y75A, the tested form may be a part): as the sequence (Q9BXC0 whole entry, the tested form may be a part) above, with Y75A counted along it

In test [1], `O=C(O)c1cccc(O)c1` [3-HYDROXYBENZOIC ACID] yielded an EC50 of around 184 µM.

`CC(O)C(=O)O` (stereo not given) [LACTIC ACID] yielded an EC50 in [1] of 1000 µM.

Turning to `CCCCCC(O)CC(=O)O` (stereo not given), the result in [2] and in [4] was inactive. For the same molecule, the result in test [3] was Active.

For `CC(C)(Cc1nc(-c2ccc(O)cn2)no1)C(=O)NC1=C(C(=O)O)CCCC1`, the outcome in test [2] and in test [5] was inactive. Moreover, the result in test [6] was Active.

`CC1CCC(C(=O)Nc2nc(-c3cccs3)c(CC(=O)N3CCN(C)CC3)s2)CC1` (stereo not given) came in with a 50% effective concentration (EC50) in test [1] of around 0.05 µM.

Turning to `O=C(O)c1cc(O)cc(O)c1` [3,5-DIHYDROXYBENZOIC ACID], the outcome in test [7] was Active. Further, the outcome in [8], in [9], in [10], in [11], in test [12] and in [13] was inactive. Also, the result in test [14], in test [15], in test [16], in test [17], in test [18] and in test [19] was inactive. In test [20], the result was inactive. In [1], this molecule showed an EC50 of around 150 µM.

`O=C(O)c1cc(O)cc(Cl)c1`: the EC50 in [1] was around 16 µM.
